# Data published in patent publication US10370333B2 (Sanford Burnham Prebys Medical Discovery Institute, priority 2012, dated 2019).
# Target: TNAP (Homo sapiens (Human), UniProt P05186)
# Experiment: TNAP (PPi) inhibition assay, pyrophosphate as substrate
# Assay type: biochemical
# Method: Expression plasmids containing a secreted epitope-tagged TNAP were transfected into COS-1 cells for transient expression. The medium was replaced with Opti-MEM 24 h later and serum-free media containing secreted proteins was collected 60 hours after electroporation. The medium was dialyzed against TBS containing 1 mM MgCl2 and […] (to remove phosphate) and filtered through a […] cellulose acetate filter.
# To determine the inhibition selectivity for inhibitor candidates, human TNAP, PLAP or IAP were added to microtiter plates followed by addition of the substrate pNPP (0.5 mM) and activity was measured in 1 M DEA-HCl buffer, pH 9.8 or in 1 M Tris-HCl buffer, pH 7.5, containing 1 mM MgCl2 and 20 μM ZnCl2, in the presence of potential inhibitors (0-30 μM). TNAP, PLAP and IAP activities were adjusted to an approximate λA405 nm, equivalent to 1, measured after 30 min. Residual AP activity in the presence of inhibitors was expressed as percentage of the control activity. To investigate the mechanism of inhibition, double reciprocal plots of enzyme activity (expressed as mA405 nm min−1) vs. substrate concentration were constructed, in the presence of various concentrations of added inhibitors (0-30 μM). The y-axis intercepts of the 1/v vs. 1/[S] plots, were then plotted vs. [I] to graphically extract Ki values as the x-intercept in this plot. […] Inhibitors were further tested and sorted based on their kinetic properties at pH 7.4 using PPi, the relevant natural substrate of TNAP. […] Amounts of released phosphate were measured using the Biomol Green Reagent (Biomol Research Laboratories, Inc., Plymouth Meeting, Pa.).
row,IC50 [nM],Compound
1,< 100,"COc1ccc2ncc(NS(=O)(=O)c3cc(Br)ccc3OC)cc2c1 [Example IX-2, 5-Bromo-2-methoxy-N-(6-methoxyquinolin-3-yl)benzenesulfonamide]"
2,< 100,"COc1ccc(Br)cc1S(=O)(=O)Nc1cnc2ccc(O)cc2c1 [Example IX-1, 5-Bromo-N-(6-hydroxyquinolin-3-yl)-2-methoxybenzenesulfonamide]"
3,100 to 1000,"COc1ccc(OC)c(S(=O)(=O)Nc2cncc(-c3ccccc3OC)c2)c1 [Example III-34, 2,5-Dimethoxy-N-[5-(2-methoxy-phenyl)-pyridin-3-yl]-benzenesulfonamide]"
4,100 to 1000,"COc1ccc(Br)cc1S(=O)(=O)Nc1cncc(-c2cccc(C)c2)c1 [Example III-50, 5-Bromo-2-methoxy-N-(5-m-tolyl-pyridin-3-yl)-benzenesulfonamide]"
5,> 1000,"CCCCN(c1cnc2ccccc2c1)S(=O)(=O)c1cc(OC)ccc1OC [Example VII-15, 2,5-Dimethoxy-N-butyl-N-(quinolin-3-yl)benzenesulfonamide]"
6,100 to 1000,"CNC(=O)c1cncc(NS(=O)(=O)c2cc(Br)ccc2OC)c1 [Example IV-16, 5-(5-Bromo-2-methoxyphenylsulfonamido)-N-methylnicotinamide]"
7,> 1000,"COCCNc1ccc(NS(=O)(=O)c2cc(OC)ccc2OC)cn1 [Example VIII-12, 2,5-Dimethoxy-N-(6-((2-methoxyethyl)amino)pyridin-3-yl)benzenesulfonamide]"
8,> 1000,"C#CCN(c1cnc2ccccc2c1)S(=O)(=O)c1cc(OC)ccc1OC [Example VII-21, 2,5-Dimethoxy-N-(prop-2-yn-1-yl)-N-(quinolin-3-yl)benzenesulfonamide]"
9,> 1000,"COc1ccc(Br)cc1S(=O)(=O)Nc1nnc(C)o1 [Example V-21, 5-Bromo-2-methoxy-N-(5-methyl-[1,3,4]oxadiazol-2-yl)-benzenesulfonamide]"
10,> 1000,"CNC(=O)c1ccc(OC)c(S(=O)(=O)Nc2cccnc2)c1 [Example I-16, 4-Methoxy-N-methyl-3-(pyridin-3-ylsulfamoyl)-benzamide]"
11,< 100,"CCCNC(=O)c1ccc2ncc(NS(=O)(=O)c3cc(OC)ccc3OC)cc2c1 [Example IX-12, 3-(2,5-Dimethoxy-benzenesulfonylamino)-quinoline-6-carboxylic Acid Propylamide]"
12,< 100,"COc1ccc(Br)cc1S(=O)(=O)Nc1cncc(-c2cccnc2)c1 [Example III-62, N-([3,3′-Bipyridin]-5-yl)-5-bromo-2-methoxybenzenesulfonamide]"
13,100 to 1000,"COc1ccc(OC)c(S(=O)(=O)Nc2cc(C)no2)c1 [Example V-6, 2,5-Dimethoxy-N-(3-methyl-isoxazol-5-yl)-benzenesulfonamide]"
14,< 100,"COc1ccc(OC(F)(F)F)cc1S(=O)(=O)Nc1cncc(-c2cnn(C)c2)c1 [Example XI-32, 2-Methoxy-N-(5-(1-methyl-1H-pyrazol-4-yl)pyridin-3-yl)-5-(trifluoromethoxy)benzenesulfonamide]"
15,> 1000,"COc1ccc(OC)c(S(=O)(=O)Nc2nccs2)c1 [Example V-16, 2,5-Dimethoxy-N-thiazol-2-yl-benzenesulfonamide]"
16,> 1000,"COc1ccc(OC)c(S(=O)(=O)Nc2nnc(C)s2)c1 [Example V-18, 2,5-Dimethoxy-N-(5-methyl-[1,3,4]thiadiazol-2-yl)-benzenesulfonamide]"

row,IC50 [nM],Compound
1,< 100,"COc1ccc(Cl)cc1S(=O)(=O)Nc1cncc(-c2cscn2)c1 [Example III-87, 5-Chloro-2-methoxy-N-(5-(thiazol-4-yl)pyridin-3-yl)benzenesulfonamide]"
2,< 100,"COc1ccc(OC(F)(F)F)cc1S(=O)(=O)Nc1cncc(-c2cccs2)c1 [Example XI-16, 2-Methoxy-N-(5-(thiophen-2-yl)pyridin-3-yl)-5-(trifluoromethoxy)benzenesulfonamide]"
3,> 1000,"COc1ccc(C(=O)NC2CCCCC2)cc1S(=O)(=O)Nc1cnc2ccccc2c1 [Example II-19, N-Cyclohexyl-4-methoxy-3-(quinolin-3-ylsulfamoyl)-benzamide]"
4,> 1000,"COc1c(Cl)cccc1S(=O)(=O)Nc1cnc2ccccc2c1 [Example II-12, 3-Chloro-2-methoxy-N-quinolin-3-yl-benzenesulfonamide]"
5,> 1000,"C=CCN(c1cnc2ccccc2c1)S(=O)(=O)c1cc(Br)ccc1OC [Example VII-10, N-allyl-5-bromo-2-methoxy-N-(quinolin-3-yl)benzenesulfonamide]"
6,> 1000,COc1ccc(Br)cc1S(=O)(=O)Nc1cscn1
7,> 1000,"COc1ccc(C(=O)N2CCN(C)CC2)cc1S(=O)(=O)Nc1cnc2ccccc2c1 [Example II-22, 2-Methoxy-5-(4-methyl-piperazine-1-carbonyl)-N-quinolin-3-yl-benzenesulfonamide]"
8,> 1000,"COc1ccc(C(=O)Nc2ccccc2)cc1S(=O)(=O)Nc1cnc2ccccc2c1 [Example II-18, 4-Methoxy-N-phenyl-3-(quinolin-3-ylsulfamoyl)-benzamide]"
9,< 100,"O=S(=O)(Nc1cnc2ccccc2c1)c1cc(Br)ccc1OC(F)(F)F [Example X-1, 5-Bromo-N-quinolin-3-yl-2-trifluoromethoxy-benzenesulfonamide]"
10,< 100,"COc1cc(C)ccc1S(=O)(=O)Nc1cnc2ccccc2c1 [Example II-3, 2-Methoxy-4-methyl-N-quinolin-3-yl-benzenesulfonamide]"
11,100 to 1000,"COc1ccc(OC)c(S(=O)(=O)Nc2cncc(C(=O)Nc3ccccc3)c2)c1 [Example IV-40, 5-(2,5-Dimethoxyphenylsulfonamido)-N-phenylnicotinamide]"
12,> 1000,"COc1ccc(Br)cc1S(=O)(=O)Nc1cc(C(F)(F)F)n(C)n1 [Example V-13, 5-Bromo-2-methoxy-N-(1-methyl-5-trifluoromethyl-1H-pyrazol-3-yl)-benzenesulfonamide]"
13,< 100,"COc1ccc(Cl)cc1S(=O)(=O)Nc1cncc(-c2ccccc2Cl)c1 [Example III-42, 5-Chloro-N-[5-(2-chloro-phenyl)-pyridin-3-yl]-2-methoxy-benzenesulfonamide]"
14,< 100,"COc1ccc(OC)c(S(=O)(=O)Nc2cncc(-c3ccsc3)c2)c1 [Example III-76, 2,5-Dimethoxy-N-(5-(thiophen-3-yl)pyridin-3-yl)benzenesulfonamide]"
15,> 1000,"COc1ccc(C(=O)NC2CCCCC2)cc1S(=O)(=O)Nc1cccnc1 [Example I-20, N-Cyclohexyl-4-methoxy-3-(pyridin-3-ylsulfamoyl)-benzamide]"
16,< 100,"O=C(OC1CCCCC1)c1cncc(NS(=O)(=O)c2cc(Cl)ccc2OC(F)(F)F)c1 [Example XII-3, Cyclohexyl 5-(5-chloro-2-(trifluoromethoxy)phenylsulfonamido)nicotinate]"

row,Compound,IC50 [nM]
1,"COc1ccc(OC)c(S(=O)(=O)Nc2cncc(C(=O)N3CCOCC3)c2)c1 [Example IV-43, 2,5-Dimethoxy-N-(5-(morpholine-4-carbonyl)pyridin-3-yl)benzenesulfonamide]",100 to 1000
2,"COc1ccc(Cl)cc1S(=O)(=O)Nc1cncc(-c2ccc(Br)cc2)c1 [Example III-24, N-[5-(4-Bromo-phenyl)-pyridin-3-yl]-5-chloro-2-methoxy-benzenesulfonamide]",100 to 1000
3,COc1ccc(OC)c(S(=O)(=O)Nc2ccc(Nc3ccccc3)nc2)c1,> 1000
4,"O=S(=O)(Nc1cncc(-c2cncs2)c1)c1cc(Cl)ccc1OC(F)(F)F [Example XI-25, 5-Chloro-N-(5-(thiazol-5-yl)pyridin-3-yl)-2-(trifluoromethoxy)benzenesulfonamide]",100 to 1000
5,"COc1ccc(OC)c(S(=O)(=O)Nc2cncc(-c3ccc(C)cc3)c2)c1 [Example III-10, 2,5-Dimethoxy-N-(5-p-tolyl-pyridin-3-yl)-benzenesulfonamide]",100 to 1000
6,"COc1ccc(OC)c(S(=O)(=O)Nc2cncc(-c3ccc(O)cc3)c2)c1 [Example III-7, N-[5-(4-Hydroxy-phenyl)-pyridin-3-yl]-2,5-dimethoxy-benzenesulfonamide]",< 100
7,"CNC(=O)c1cncc(NS(=O)(=O)c2cc(Br)ccc2OC(F)(F)F)c1 [Example XII-14, 5-(5-Bromo-2-(trifluoromethoxy)phenylsulfonamido)-N-methylnicotinamide]",100 to 1000
8,"O=S(=O)(Nc1cncc(-c2ncccn2)c1)c1cc(Br)ccc1OC(F)(F)F [Example XI-24, 5-Bromo-N-(5-(pyrimidin-2-yl)pyridin-3-yl)-2-(trifluoromethoxy)benzenesulfonamide]",100 to 1000
9,"COc1ccc(Br)cc1S(=O)(=O)Nc1cnc2ccc(C(=O)O)cc2c1 [Example IX-5, 3-(5-Bromo-2-methoxy-benzenesulfonylamino)-quinoline-6-carboxylic Acid]",100 to 1000
10,"COc1ccc(-c2ccccc2)cc1S(=O)(=O)Nc1cnc2ccccc2c1 [Example II-6, 4-Methoxy-biphenyl-3-sulfonic acid quinolin-3-ylamide]",100 to 1000
11,"N#Cc1ccc(-c2cncc(NS(=O)(=O)c3cc(Br)ccc3OC(F)(F)F)c2)cc1 [Example XI-11, 5-Bromo-N-(5-(4-cyanophenyl)pyridin-3-yl)-2-(trifluoromethoxy)benzenesulfonamide]",100 to 1000
